Here are results for 23 compounds from ChEMBL document CHEMBL2311449, “Synthesis and evaluation of diphenylphosphinic amides and diphenylphosphine oxides as inhibitors of Kv1.5” (Bioorg Med Chem Lett, 2013).

What is called IC50 is the concentration that gives 50% inhibition. In general, logD refers to lipophilicity at a set pH, counting ionised and neutral species. Lower therefore signals a more hydrophilic compound. As a reminder, the bioavailability is the share of a dose that reaches the circulation, judged against a reference dose that is usually intravenous. As a reminder, the clearance is the rate of elimination divided by the concentration. Higher therefore signals a high capacity for elimination. One may read the solubility as how much of the substance goes into solution per volume. Low readings indicate a poorly soluble substance, high ones a readily soluble substance. Broadly, the Papp is the rate of passage across a membrane or cell layer, normalised by area and donor concentration.

Series [1] deals with Intermediate conductance calcium-activated potassium channel protein 4 (Homo sapiens, UniProt O15554). Nature of the series: Inhibition of IK channel (unknown origin).
Chain of Intermediate conductance calcium-activated potassium channel protein 4 (O15554 whole entry): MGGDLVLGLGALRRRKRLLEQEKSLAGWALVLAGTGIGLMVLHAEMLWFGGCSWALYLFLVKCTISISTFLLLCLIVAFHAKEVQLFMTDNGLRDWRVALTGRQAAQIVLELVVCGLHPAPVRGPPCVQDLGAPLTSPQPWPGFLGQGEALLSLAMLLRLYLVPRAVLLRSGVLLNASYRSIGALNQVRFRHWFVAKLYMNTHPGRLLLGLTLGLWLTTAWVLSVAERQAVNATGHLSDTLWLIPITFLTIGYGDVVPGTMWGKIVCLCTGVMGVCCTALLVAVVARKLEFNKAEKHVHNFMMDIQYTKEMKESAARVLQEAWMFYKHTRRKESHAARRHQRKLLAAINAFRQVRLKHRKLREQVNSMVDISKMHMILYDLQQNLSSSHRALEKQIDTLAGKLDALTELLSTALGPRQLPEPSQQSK
The target in series [2] is Potassium voltage-gated channel subfamily A member 5 (Homo sapiens, UniProt P22460). Nature of the series: Inhibition of human Kv1.5 channel expressed in CHO cells by high throughput planar patch clamp assay. The class given is cell-based. (In general: Patch clamp records ionic current or voltage across a cell membrane.)
Chain of Potassium voltage-gated channel subfamily A member 5 (P22460 whole entry): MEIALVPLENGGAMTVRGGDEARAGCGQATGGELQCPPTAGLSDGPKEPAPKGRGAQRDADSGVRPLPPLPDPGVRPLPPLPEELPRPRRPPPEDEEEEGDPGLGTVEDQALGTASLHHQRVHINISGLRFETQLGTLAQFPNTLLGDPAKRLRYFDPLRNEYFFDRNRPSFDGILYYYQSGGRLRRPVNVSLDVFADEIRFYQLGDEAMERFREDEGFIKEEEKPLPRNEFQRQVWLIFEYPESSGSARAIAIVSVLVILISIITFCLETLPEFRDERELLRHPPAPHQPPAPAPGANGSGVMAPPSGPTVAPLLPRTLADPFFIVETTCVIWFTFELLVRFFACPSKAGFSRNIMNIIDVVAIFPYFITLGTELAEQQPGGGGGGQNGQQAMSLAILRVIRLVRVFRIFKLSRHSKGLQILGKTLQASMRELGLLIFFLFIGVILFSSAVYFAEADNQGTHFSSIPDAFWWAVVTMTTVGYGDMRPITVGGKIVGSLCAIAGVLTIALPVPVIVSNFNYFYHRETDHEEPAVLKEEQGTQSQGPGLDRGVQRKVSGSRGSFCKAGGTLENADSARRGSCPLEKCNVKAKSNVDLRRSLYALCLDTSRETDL
For series [3], the target named is Voltage-gated inwardly rectifying potassium channel KCNH2 (Homo sapiens, UniProt Q12809).
Chain of Voltage-gated inwardly rectifying potassium channel KCNH2 (Q12809 whole entry): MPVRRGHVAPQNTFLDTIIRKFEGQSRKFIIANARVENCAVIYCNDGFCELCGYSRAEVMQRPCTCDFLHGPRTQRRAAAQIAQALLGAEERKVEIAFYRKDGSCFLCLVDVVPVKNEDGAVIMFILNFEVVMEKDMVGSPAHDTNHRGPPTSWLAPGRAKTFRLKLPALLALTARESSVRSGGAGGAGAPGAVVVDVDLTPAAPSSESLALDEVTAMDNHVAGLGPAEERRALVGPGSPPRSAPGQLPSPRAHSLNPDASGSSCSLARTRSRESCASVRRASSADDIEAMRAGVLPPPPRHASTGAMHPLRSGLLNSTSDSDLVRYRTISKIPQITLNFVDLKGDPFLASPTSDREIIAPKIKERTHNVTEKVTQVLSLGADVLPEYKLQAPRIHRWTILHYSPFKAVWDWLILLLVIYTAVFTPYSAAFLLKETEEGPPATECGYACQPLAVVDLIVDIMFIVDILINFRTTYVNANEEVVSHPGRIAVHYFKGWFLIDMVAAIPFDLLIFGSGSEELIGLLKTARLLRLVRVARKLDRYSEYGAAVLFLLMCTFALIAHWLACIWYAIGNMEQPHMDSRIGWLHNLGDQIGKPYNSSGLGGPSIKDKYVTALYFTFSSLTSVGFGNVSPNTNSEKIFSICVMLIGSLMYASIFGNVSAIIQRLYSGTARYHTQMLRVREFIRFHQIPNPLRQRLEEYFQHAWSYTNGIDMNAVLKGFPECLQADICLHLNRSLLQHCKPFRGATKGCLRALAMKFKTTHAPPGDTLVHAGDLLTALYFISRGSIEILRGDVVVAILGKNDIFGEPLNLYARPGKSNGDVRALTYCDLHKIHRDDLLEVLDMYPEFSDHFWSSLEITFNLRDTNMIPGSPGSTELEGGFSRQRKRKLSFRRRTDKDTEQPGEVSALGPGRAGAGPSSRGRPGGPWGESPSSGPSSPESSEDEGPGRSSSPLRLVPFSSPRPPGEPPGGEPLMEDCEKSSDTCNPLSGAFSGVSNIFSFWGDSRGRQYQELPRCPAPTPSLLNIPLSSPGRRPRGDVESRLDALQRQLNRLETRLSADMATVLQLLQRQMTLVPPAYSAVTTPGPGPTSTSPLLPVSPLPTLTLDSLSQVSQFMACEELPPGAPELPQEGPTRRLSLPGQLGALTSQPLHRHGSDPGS
Series [4] is filed under the species Oryctolagus cuniculus. The experiment in a line: Toxicity in New Zealand white rabbit assessed as CNS effect at plasma concentration of 3 to 4 times 20% change in atrium effective refractory period. It counts as organism-based. Conditions: in vivo.
In series [5] the test system is Oryctolagus cuniculus. Nature of the series: Increase of effective refractory period in New Zealand white rabbit assessed as maximum change in QT interval at 0.1 and 1 umol/kg/min for 15 mins infusions. It counts as functional.
A further series concerns Plasma. Nature of the series: Unbound steady state plasma concentration in New Zealand white rabbit assessed as concentration required to 20% change in atrium effective refractory period at 0.1 and 1 umol/kg/min for 15 mins infusions. It counts as ADME, cell-free, Oryctolagus cuniculus. To be noted: 0.25 h.
Series [6] has as its system Oryctolagus cuniculus. Nature of the series: Toxicity in New Zealand white rabbit assessed as CNS effect at 0.1 and 1 umol/kg/min. It counts as organism-based, Central nervous system. To be noted: in vivo.
Series [7] can be described thus: Lipophilicity, log D of compound at pH 7.4. It counts as physicochemical. Conditions: buffer.
A short description of series [8]: Oral bioavailability in rat. It counts as ADME, organism-based. To be noted: in vivo.
A short description of series [9]: Clearance in rat. It counts as ADME, organism-based. To be noted: in vivo.
Series [10] is described as follows: Solubility of the compound at pH 7.4. The class given is physicochemical. To be noted: buffer.
Series [11] can be described thus: Apparent permeability of the compound in human Caco2 cells. It counts as ADME, cell-based. To be noted: Caco-2.
Series [12] can be described thus: Intrinsic clearance in human liver microsomes. The class given is ADME, Microsome. Conditions: read-out: CLH.

Converted amounts (≈) assume the structure as drawn.

Turning to `O=P(NCc1ccccc1-c1cccnc1)(c1ccccc1)c1ccccc1`, the IC50 is more than 33000 nM in [1], 2300 nM in [2] and more than 33000 nM in [3].

Turning to `O=P(c1ccccc1)(c1ccccc1)C(c1ccccc1)c1cccnc1` (racemic), the figures for the IC50 in [1] and in series [2] were 500 nM and 100 nM, respectively.

As to `O=P(Nc1cccnc1)(c1ccccc1)c1ccccc1`, the IC50 was more than 30000 nM in series [2] and more than 33000 nM in [3].

With `O=P(NCc1cccnc1-c1cc(Cl)cc(Cl)c1)(c1ccccc1)c1ccccc1`, the IC50 was found to be 13000 nM in series [1] and 80 nM in series [2].

`CCCNC(c1cccnc1)P(=O)(c1ccccc1)c1ccccc1` (racemic): the IC50 in series [1] is 14000 nM; in series [2], 750 nM.

Take `CCCN(c1cncnc1)P(=O)(c1ccccc1)c1ccccc1`: the Activity result was “Toxic” in the series filed under Oryctolagus cuniculus [4] and less than 10% in the series with Oryctolagus cuniculus [5]. In addition, in the series on Plasma, the “Cp(f)ss” value was determined as 600 nM. Further, the results for the half-maximal inhibitory concentration (IC50) in series [1] and in [2] were more than 33000 nM and 1000 nM, respectively.

For the compound `N#Cc1cccc(-c2ncccc2CNP(=O)(c2ccccc2)c2ccccc2)c1`, the Activity entry in the series on Oryctolagus cuniculus [6] is given as “Toxic”. The half-maximal inhibitory concentration (IC50) in series [1] amounted to 7700 nM; in series [2], 540 nM.

Take `O=P(c1ccccc1)(c1ccccc1)N(Cc1ccccn1)Cc1ccccn1`: the Activity result with Oryctolagus cuniculus [6] is given as “Toxic”. In addition, the 50% inhibitory concentration (IC50) in series [1] was more than 33000 nM; in [2], 1300 nM; in [3], more than 33000 nM.

Regarding `O=P(c1ccccc1)(c1ccccc1)C(c1cccnc1)c1cccnc1`, the IC50 is 1000 nM in series [1] and 180 nM in series [2].

In the case of `COc1ccc(-c2ncccc2NP(=O)(c2ccccc2)c2ccccc2)cc1`, the half-inhibitory concentration (IC50) in series [2] is 17000 nM; in series [3], more than 33000 nM.

With `O=P(c1ccccc1)(c1ccccc1)C(c1cccnc1)N1CCCCC1` (racemic), the IC50 turned out to be 1800 nM in series [1] and 140 nM in series [2].

As for `CC(C)[C@@H]1CC[C@@H](C)C[C@@H]1P(=O)(c1ccccc1)c1ccccc1`, in [7], the log distribution coefficient (logD) amounted to 6.

Compound `c1ccc([C@H]([C@@H](c2ccccc2)N2CCCCC2)N2CCCCC2)cc1` returned an IC50 in series [2] of 1700 nM.

Consider `O=P(c1ccccc1)(c1ccccc1)N(Cc1ccccn1)c1cccnc1`, for which the Activity result with Oryctolagus cuniculus [6] was “Toxic”. In addition, the IC50 was 10000 nM in [1], 530 nM in series [2] and more than 33000 nM in series [3].

Regarding `CCCN(c1cccc(S(C)(=O)=O)c1)P(=O)(c1ccccc1)c1ccccc1`, in the series with Oryctolagus cuniculus [6], the Activity entry was “Toxic”. Further, the half-maximal inhibitory concentration (IC50) in [1] is more than 33000 nM; in [2], 930 nM; in series [3], more than 33000 nM.

In the case of `O=P(NCc1cccnc1-c1cccnc1)(c1ccccc1)c1ccccc1`, the half-inhibitory concentration (IC50) in series [1] was 33000 nM; in [2], 2700 nM.

Take `CCCN(c1cccnc1)P(=O)(c1ccccc1)c1ccccc1`: in series [8], the bioavailability was 55%. The clearance in [9] stood at 11 mL/min/kg. The compound further had a solubility in series [10] of 91 µM (≈ 30.6 µg/mL). Besides, the Papp in series [11] is 30 ×10⁻⁶ cm/s. The microsomal CLint in series [12] came to 158 µL/min/mg. The Activity result in the series listed under Oryctolagus cuniculus [4] is listed as “Toxic”; in the series with Oryctolagus cuniculus [5], 23%. In series [7], this compound returned a logD of 2.6. Besides, the “Cp(f)ss” value in the series with Plasma turned out to be 800 nM. The IC50 in [1] was 14000 nM; in series [2], 120 nM; in series [3], more than 33000 nM.

`O=P(c1ccccc1)(c1ccccc1)N(c1cccnc1)c1cccnc1` gave a half-inhibitory concentration (IC50) in [2] of 1600 nM.

For `O=P(Nc1cc(F)ccc1-n1cccn1)(c1ccccc1)c1ccccc1`, the half-inhibitory concentration (IC50) in series [1] is 7800 nM; in [2] it was 4100 nM; in series [3], more than 33000 nM.

With `CCCN(c1cccc(C#N)c1)P(=O)(c1ccccc1)c1ccccc1`, the concentration for half-maximal inhibition (IC50) in series [1] was 2700 nM; in series [2] it was 200 nM; in series [3], more than 33000 nM.

Take `O=P(NCc1cccnc1-c1cccc(Cl)c1)(c1ccccc1)c1ccccc1`: the values for the IC50 in [1] and in series [2] were 4900 nM and 330 nM, respectively.

As to `COCCN(c1cccnc1)P(=O)(c1ccccc1)c1ccccc1`, the IC50 in [1] is more than 33000 nM; in [2] it was 620 nM; in series [3], more than 33000 nM.

As for `N#CCCCN(c1cccnc1)P(=O)(c1ccccc1)c1ccccc1`, the concentration for half-maximal inhibition (IC50) in series [1] was 31000 nM; in series [2] it was 1900 nM; in series [3], more than 33000 nM.
